Consider 13 compounds from patent publication US9850206B2, “S1P and/or ATX modulating agents” (BIOGEN MA INC., priority 2012, dated 2017).

What is called IC50 is the midpoint of a concentration-inhibition curve.

Assay [1] has as its target S1P5 (Homo sapiens, UniProt Q9H228). Description: S1P receptor activity assay (calcium flux, FLIPR TETRA), S1P5. The assay is classed as cell-based. The text has this:
(§1) Agonist percentage activation determinations were obtained by assaying sample compounds and referencing the Emax control for each receptor profiled. Antagonist percentage inhibition determinations were obtained by assaying sample compounds and referencing the control EC80 wells for each receptor profiled. The samples were run using a “Single Addition” assay protocol for the agonist and antagonist assay run. The protocol design was as follows:
(§2) Master stock solution: Unless specified otherwise, all sample compounds were diluted in 100% anhydrous DMSO including all serial dilutions. All control wells contained identical solvent final concentrations as did the sample compound wells.
(§3) Compound plate for assay: The sample compounds were transferred from a master stock solution into a daughter plate that was used in the assay. Each sample compound was diluted into assay buffer (1×HBSS with 20 mM HEPES and 2.5 mM Probenecid) at an appropriate concentration to obtain final concentrations.
(§4) Sample compounds were plated in an eight-point, four-fold dilution series in duplicate with a top concentration of 10 μM. The concentrations described here reflect the final concentration of the compounds during the antagonist assay.
(§5) Reference agonists were handled as mentioned above serving as assay control. The reference agonists were handled as described above for Emax.
(§6) Assay was read for 180 seconds using the […] (This assay run added sample compounds and reference agonist to respective wells). At the completion of the first “Single Addition” assay run, assay plate was removed from the […] and placed at 25° C. for seven (7) minutes.
(§7) Using the EC80 values determined during the agonist assay, stimulated all pre-incubated sample compound and reference antagonist (if applicable) wells with EC80 of reference agonist. Read for 180 seconds using the […] (This assay added reference agonist to respective wells—then fluorescence measurements were collected to calculate percentage inhibition values).
(§8) All plates were subjected to appropriate baseline corrections. Once baseline corrections were processed, maximum fluorescence values were exported and data manipulated to calculate percentage activation, percentage inhibition and Z′.
Background: Calcium flux is commonly read through the fluorescence of an indicator in the cells.

The target of assay [2] is S1P1 (Homo sapiens, UniProt P21453). Description: S1P receptor activity assay (calcium flux, FLIPR TETRA), S1P1. It is filed as cell-based.
S1P1, sequence (P21453 whole entry): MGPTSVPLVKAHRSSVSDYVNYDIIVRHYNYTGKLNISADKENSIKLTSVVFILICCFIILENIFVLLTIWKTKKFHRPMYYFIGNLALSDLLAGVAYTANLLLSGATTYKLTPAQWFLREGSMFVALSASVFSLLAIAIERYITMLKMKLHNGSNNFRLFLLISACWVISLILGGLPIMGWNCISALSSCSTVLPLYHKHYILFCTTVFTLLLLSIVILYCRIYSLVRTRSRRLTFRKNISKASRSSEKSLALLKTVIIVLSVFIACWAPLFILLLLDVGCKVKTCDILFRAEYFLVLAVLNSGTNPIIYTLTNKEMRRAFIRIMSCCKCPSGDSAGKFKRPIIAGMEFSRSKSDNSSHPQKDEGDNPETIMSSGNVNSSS
From the text: as §1, §2, §3, §4, §5, §6, §7, §8

The target in assay [3] is T1, Human ATX protein (Homo sapiens, UniProt Q13822).
T1 construct: made in house
Kind of assay: Autotaxin (ATX) FRET assay with FS-3 substrate. It is filed as biochemical. The text has this: ATX (Autotaxin) is a 125 KDa glycoprotein with lysophospholipase D (LPLD) activity that generates the bioactive lipid lysophosphatidic acid (LPA) from lysophosphatidylcholine (LPC). The ATX biochemical assay utilizes a FRET (fluorescence resonance energy transfer) technology platform. […] ATX catalyzes the hydrolysis of the substrate which separates the dabsyl quencher from the fluorescein reporter, which becomes fluorescent. The reaction is monitored by a SpectraMax M5 (Molecular Devices, Sunnyvale, Calif.) with at excitation wavelength 485 nm and emission wavelength 535 nm.
Fatty acid free-BSA (Sigma A8806): 10 mg/mL in H2O, stored at 4° C.
2×ATX assay buffer: 100 mM Tris, 280 mM NaCl, 10 mM KCl, 2 mM CaCl2, 2 mM MgCl2, pH 7.4.
Human ATX protein: expressed and purified in house. Stored at −80° C.
Substrate FS-3 (Echelon, L-2000): 100 μg in 77.74 μL H2O (1 mM stock), stored at −20° C.
Compound dilution—All compounds were provided at 10 mM in 100% DMSO. In the first well, 2 μL of 10 mM compound was added to 78 μL of DMSO (1:40 dilution). In subsequent wells 3-fold dilution (total 10 dilutions) were performed.
1×ATX assay buffer was made up with a final concentration of 1 mg/mL fatty acid free-BSA using 2×ATX assay buffer, 10 mg/ml fatty acid free-BSA and ddH2O.
38 μL was added per well to the assay plate. The final concentration of ATX in the reaction as 1.0 μg/mL.
2 μL per well of compounds was transferred to provide the desired concentration. The plate was centrifuged, then incubated at room temperature for 30 minutes on the shaker.
FS-3 was diluted with 1×ATX assay buffer to a concentration of FS-3 of 10 μM (5×). Then, 10 μL was added per well to the assay plate. The final concentration of FS-3 in the reaction was 2 μM. The plate was centrifuged. The plate was kept shaking at room temperature for 2 hours. Because FS-3 substrate is light sensitive, plates were kept covered and protected from light.

For assay [4], the system named is OPCs (oligodendrocyte precursor cells). Kind of assay: OPC differentiation assay. The assay is classed as cell-based, Sprague Dawley rats. As to conditions: 2 μM and 20 μM, 3-day incubation. How it is done:
Enriched populations of oligodendrocytes were grown from post-natal day 2 (P2) female Sprague Dawley rats. The forebrain was dissected out and placed in Hank's buffered saline solution (HBSS; Invitrogen, Grand Island, N.Y.). The tissue was cut into 1 mm fragments and incubated at 37° C. for 15 minutes in 0.01% trypsin and 10 μg/mL DNase. Dissociated cells were plated on poly-L-lysine-coated T75 tissue culture flasks and grown at 37° C. for 10 days in Dulbecco's modified Eagle's medium (DMEM) with 20% fetal calf serum (Invitrogen). A2B5+OPCs were collected by shaking the flask overnight at 200 rpm and 37° C., resulting in a 95% pure population.
For the differentiation assay, 2 μM and 20 μM antagonist or the same concentrations of vehicle (DMSO) were applied to OPCs cultured in CNTF/T3 containing media. After a 3-day incubation, […], cell were lysed and then subjected to MSD (Meso Scale Discovery-R) analysis. EC50 was calculated by Prism using a nonlinear sigmoidal dose-response curvecells. […] After centrifugation at 14,000 g for 15 minutes, the supernatants were boiled in Laemmli sample buffer, subjected to 4-20% SDS-PAGE, and analyzed by Western blotting with anti-MBP, anti-myelin-associated glycoprotein (MAG), or anti-beta actin antibodies. […]

Assay [5] concerns the target T2, S1P4 (Homo sapiens, UniProt O95977).
T2 sequence (O95977 1-384): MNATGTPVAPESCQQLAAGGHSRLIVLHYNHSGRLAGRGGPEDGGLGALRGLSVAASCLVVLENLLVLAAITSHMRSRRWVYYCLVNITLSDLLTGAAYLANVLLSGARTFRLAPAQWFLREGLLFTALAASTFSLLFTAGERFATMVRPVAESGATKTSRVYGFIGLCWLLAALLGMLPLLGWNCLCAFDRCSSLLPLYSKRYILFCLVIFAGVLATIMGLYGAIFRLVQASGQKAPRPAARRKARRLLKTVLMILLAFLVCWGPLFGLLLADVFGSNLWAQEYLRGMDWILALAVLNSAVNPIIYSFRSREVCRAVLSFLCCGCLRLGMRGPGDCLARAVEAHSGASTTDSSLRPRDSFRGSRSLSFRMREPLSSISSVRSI
Kind of assay: S1P receptor activity assay (calcium flux, FLIPR TETRA), S1P4. The assay is classed as cell-based.
From the text: as §1, §2, §3, §4, §5, §6, §7, §8

Where [6] appears, read: calcium flux, top concentration 10 μM, read-out: IC50 for S1P5.
[7] abbreviates: calcium flux, top concentration 10 μM, the >5 μM sentence says only 'for S1P1', read-out: IC50 for S1P1 agonist activity.
Where [8] appears, read: FS-3 2 μM, ATX 1.0 μg/mL, 2 hours at room temperature, read-out: IC50 (ATX).
Setting [9] is: calcium flux, top concentration 10 μM, the >5 μM sentence says only 'for S1P4', read-out: IC50 for S1P4 agonist activity.

Where two headings read alike, the source gives them in different places.

S1P5, sequence (Q9H228 whole entry): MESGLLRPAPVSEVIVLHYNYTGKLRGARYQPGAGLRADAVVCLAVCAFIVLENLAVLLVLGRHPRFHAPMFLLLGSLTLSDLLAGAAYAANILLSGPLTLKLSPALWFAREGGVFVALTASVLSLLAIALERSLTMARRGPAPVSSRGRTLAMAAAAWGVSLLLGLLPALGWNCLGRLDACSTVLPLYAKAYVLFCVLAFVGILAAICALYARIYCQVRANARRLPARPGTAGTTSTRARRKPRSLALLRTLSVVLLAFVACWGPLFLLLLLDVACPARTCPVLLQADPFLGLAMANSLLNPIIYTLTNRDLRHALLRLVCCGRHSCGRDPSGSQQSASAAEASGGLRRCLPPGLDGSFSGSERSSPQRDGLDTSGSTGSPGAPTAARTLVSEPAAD

For `CCCCCCCCOc1ccc(N2CCN(CCC(=O)O)CC2)cc1` [Example 14, 3-(4-(4-(Octyloxy)phenyl)piperazin-1-yl)propanoic acid], the half-maximal inhibitory concentration (IC50) is more than 5 µM in assay [1], more than 5 µM in assay [2], more than 10 µM in assay [3] and not above 2 µM in assay [5]. The “result in the OPC assay” value in assay [4] was “positive”.
Turning to `CCCCCCCCOc1ccc(N2CCN(CC34CCC(C(=O)O)(CC3)CC4)CC2)cc1` [Example 16, 4-((4-(4-(Octyloxy)phenyl)piperazin-1-yl)methyl)bicyclo[2.2.2]octane-1-carboxylic acid], the IC50 was more than 5 µM in assay [1], more than 5 µM in assay [2], not above 5 µM in assay [3] and not above 5 µM in assay [5]. For the same compound, the “result in the OPC assay” value in assay [4] was “positive”.
As for `CC[C@H]1CC[C@@H](Oc2ccc(C3CCN(CCCCC(=O)O)CC3)cc2)CC1` [Example 38, 5-(4-(4-((cis-4-Ethylcyclohexyl)oxy)phenyl)piperidin-1-yl)pentanoic acid], the IC50 was more than 5 µM in assay [1] (setting [6]), 2 to 5 µM in assay [2] (setting [7]), more than 10 µM in assay [3] (setting [8]) and not above 2 µM in assay [5] (setting [9]).
Turning to `O=C(O)CCN1CC=C(c2ccc(OC3CCC4(CCCC4)CC3)cc2)CC1` [Example 39, 3-(4-(4-(Spiro[4.5]decan-8-yloxy)phenyl)-5,6-dihydropyridin-1(2H)-yl)propanoic acid], the IC50 in assay [1] is more than 5 µM; in assay [2], more than 5 µM; in assay [3], more than 10 µM; in assay [5] it was 2 to 5 µM.
As for `O=C(O)CCN1CCC(c2ccc(OC3CCC4(CCCC4)CC3)cc2)CC1` [Example 40, 3-(4-(4-(Spiro[4.5]decan-8-yloxy)phenyl)piperidin-1-yl)propanoic acid], the 50% inhibitory concentration (IC50) in assay [1] (setting [6]) is not above 2 µM; in assay [2] (setting [7]) it was 2 to 5 µM; in assay [3] (setting [8]) it was not above 5 µM; in assay [5] (setting [9]) it was not above 2 µM.
Take `O=C(O)CCCN1CC=C(c2ccc(OC3CCC4(CCCC4)CC3)cc2)CC1` [Example 41, 4-(4-(4-(Spiro[4.5]decan-8-yloxy)phenyl)-5,6-dihydropyridin-1(2H)-yl)butanoic acid]: the IC50 in assay [1] (setting [6]) is 2 to 5 µM; in assay [2] (setting [7]) it was more than 5 µM; in assay [3] (setting [8]) it was not above 5 µM; in assay [5] (setting [9]) it was 2 to 5 µM.
`O=C(O)CCCN1CCC(c2ccc(OC3CCC4(CCCC4)CC3)cc2)CC1` [Example 42, 4-(4-(4-(Spiro[4.5]decan-8-yloxy)phenyl)piperidin-1-yl)butanoic acid]: the IC50 in assay [1] (setting [6]) is more than 5 µM; in assay [2] (setting [7]), more than 5 µM; in assay [3] (setting [8]), 5 to 10 µM; in assay [5] (setting [9]), 2 to 5 µM.
Regarding `O=C(O)CCCCN1CC=C(c2ccc(OC3CCC4(CCCC4)CC3)cc2)CC1` [Example 43, 5-(4-(4-(Spiro[4.5]decan-8-yloxy)phenyl)-5,6-dihydropyridin-1(2H)-yl)pentanoic acid], the 50% inhibitory concentration (IC50) in assay [1] (setting [6]) was more than 5 µM; in assay [2], more than 5 µM; in assay [3] (setting [8]), more than 10 µM; in assay [5] it was 2 to 5 µM.
`O=C(O)CCCCN1CCC(c2ccc(OC3CCC4(CCCC4)CC3)cc2)CC1` [Example 44, 5-(4-(4-(Spiro[4.5]decan-8-yloxy)phenyl)piperidin-1-yl)pentanoic acid]: the IC50 in assay [1] (setting [6]) was not above 2 µM; in assay [2] (setting [7]), more than 5 µM; in assay [3] (setting [8]), more than 10 µM; in assay [5] (setting [9]), not above 2 µM.
Turning to `CC(C)(C)[C@H]1CC[C@H](Oc2ccc(C3=CCN(CCC(=O)O)CC3)cc2)CC1` [Example 45, 3-(4-(4-((trans-4-(tert-Butyl)cyclohexyl)oxy)phenyl)-5,6-dihydropyridin-1(2H)-yl)propanoic acid], the IC50 in assay [1] (setting [6]) is more than 5 µM; in assay [2], 2 to 5 µM; in assay [3] (setting [8]) it was 5 to 10 µM; in assay [5] it was not above 2 µM.
Regarding `CC(C)(C)[C@H]1CC[C@H](Oc2ccc(C3CCN(CCC(=O)O)CC3)cc2)CC1` [Example 46, 3-(4-(4-((trans-4-(tert-Butyl)cyclohexyl)oxy)phenyl)piperidin-1-yl)propanoic acid], the 50% inhibitory concentration (IC50) is more than 5 µM in assay [1] (setting [6]), not above 2 µM in assay [2] (setting [7]), 5 to 10 µM in assay [3] (setting [8]) and not above 2 µM in assay [5] (setting [9]).
With `CC(C)(C)[C@H]1CC[C@H](Oc2ccc(C3=CCN(CCCC(=O)O)CC3)cc2)CC1` [Example 47, 4-(4-(4-((trans-4-(tert-Butyl)cyclohexyl)oxy)phenyl)-5,6-dihydropyridin-1(2H)-yl)butanoic acid], the IC50 in assay [1] (setting [6]) was not above 2 µM; in assay [2] it was not above 2 µM; in assay [3] (setting [8]), not above 5 µM; in assay [5] it was not above 2 µM.
On to `CC(C)(C)[C@H]1CC[C@H](Oc2ccc(C3CCN(CCCC(=O)O)CC3)cc2)CC1` [Example 48, 4-(4-(4-((trans-4-(tert-Butyl)cyclohexyl)oxy)phenyl)piperidin-1-yl)butanoic acid], for which the IC50 in assay [1] (setting [6]) is not above 2 µM; in assay [2] (setting [7]) it was not above 2 µM; in assay [3] (setting [8]), not above 5 µM; in assay [5] (setting [9]) it was not above 2 µM.
